Values joined by “and” are separate entries in the source; they are usually repeats but may differ in a detail not shown here. Equal values may be shown once.
How the values were obtained:
[1] = test system: patient with metastatic prostate cancer; assay: First-in-human PET/CT imaging; type: in vivo; details: 105 MBq/32 µg i.v., 3 h after tracer administration
Protocol: [^61Cu]Cu-NODAGA-PSMA-I&T was produced at the Nuclear Medicine Department of the Klinikum Rechts der Isar (Technical University of Munich) for human use. It was applied according to §13.2b of the German pharmaceutical law, and the requirement to obtain consent for the retrospective data analysis was waived. The manufacture of the tracer was performed via an automated process through a GE Healthcare FASTlab 2 module. Details on the production and quality controls are described in the supplemental materials. A dose of 105 MBq/32 µg was administered intravenously to a patient with known metastatic prostate cancer before ^177Lu-labeled PSMA radiopharmaceutical therapy. The patient was coinjected with 10 mg of furosemide (Lasix; Sanofi-Aventis). Imaging was performed 3 h after tracer administration on a Biograph Vision PET/CT scanner (Siemens Healthineers). Images were obtained from the skull to mid-thigh and reconstructed into multiplanar PET, CT, and fused PET/CT images. CT was used for attenuation correction.
FIGURE 4. Administration of [^61Cu]Cu-NODAGA-PSMA-I&T, in person with metastatic castration-resistant prostate cancer with disease progression, after abiraterone and docetaxel therapy before ^177Lu-labeled PSMA radiopharmaceutical therapy. Imaging was performed 3 h after tracer administration. […] Patient has also 1 kidney after left nephrectomy.

[2] = Human dosimetry estimates (OLINDA/EXM version 1.0) from mouse biodistribution; details: standard adult man phantom; mouse kinetics assumed same as human
Protocol: Additional biodistribution data were generated in healthy BALB/c mice using [^64Cu]Cu-NODAGA-PSMA-I&T at 1, 4, 12, and 24 h after injection and combined with the data of [^61Cu]Cu-NODAGA-PSMA-I&T at 1 and 4 h after injection. Non–decay-corrected biodistribution data for ^61Cu (t1/2, 3.33 h) were used to generate time–activity curves for [^61Cu]Cu-NODAGA-PSMA-I&T. OLINDA/EXM version 1.0 (Vanderbilt University) was used for the dosimetry estimates, as described in the supplemental materials.

[3] = Lipophilicity: distribution coefficient in 1:1 1-octanol/phosphate-buffered saline at pH 7.4; type: physicochemical
Protocol: (§1) The lipophilicity of [^61Cu]Cu-DOTAGA-PSMA-I&T and [^61Cu]Cu-NODAGA-PSMA-I&T was assessed by determining the distribution coefficient in a 1:1 mixture of 1-octanol–to–phosphate-buffered saline at pH 7.4, in comparison with all reference radiotracers. Inhibitory concentration of 50% (IC50) was assessed by competition binding on lymph node carcinoma of the prostate (LNCaP) using ((S)-1-carboxy-5-(4-(-^125I-iodo-benzamido)pentyl)carbamoyl)-L-glutamic acid as the reference radioligand. Cellular uptake and distribution were assessed in LNCaP cells at 5, 15, 30, 60, and 120 min after exposure to the radioligand at 37°C, either alone or in the presence of 10 µM 2-(phosphonomethyl)pentanedioic acid to distinguish between specific and nonspecific uptake.

LNCaP cells = assay: Cellular uptake and distribution (surface-bound, internalized) in LNCaP cells; type: cell-based; details: 1 h, 37°C
Protocol: as §1
FIGURE 1. In vitro assessment in LNCaP cells after 1 h at 37°C. (A) Competition binding activity curves of ^natCu-DOTAGA-PSMA-I&T, ^natCu-NODAGA-PSMA-I&T, and ^natGa-PSMA-11 on LNCaP cells after 1 h of incubation on ice, using ((S)-1-carboxy-5-(4-(-^125I-iodo-benzamido)pentyl)carbamoyl)-L-glutamic acid ([^125I-BA]KuE) at concentration of 0.2 nM as reference radioligand. (B) Cellular uptake (surface-bound + internalized). Cell surface–bound and internalized fractions are indicated. Results represent mean ± SD of specific (total − nonspecific) uptake from minimum of 2 separate experiments, each in triplicate.

[4] = Stability of radiotracer at room temperature (radiochemical purity over time); type: physicochemical; details: good manufacturing practice grade for human use, 20 MBq/nmol
Protocol: [^61Cu]Cu-DOTAGA-PSMA-I&T and [^61Cu]Cu-NODAGA-PSMA-I&T were synthesized with radiolabeling yield of more than 98% and radiochemical purity of more than 97% (radio–high-performance liquid chromatography analysis) at an apparent molar activity of 24 MBq/nmol. Thus, no purification was required after labeling. Although [^61Cu]Cu-DOTAGA-PSMA-I&T needed elevated temperature (95°C) and 15 min of reaction time, [^61Cu]Cu-NODAGA-PSMA-I&T was synthesized at room temperature within 5 min. After 4 h at room temperature, the radiochemical purity of [^61Cu]Cu-DOTAGA-PSMA-I&T dropped to approximately 90%, whereas it remained stable (∼97%) for [^61Cu]Cu-NODAGA-PSMA-I&T. All analytic data and quality control results are provided in Supplemental Figures 1 and 2 and in Supplemental Tables 1 and 2.
With inexpensive ^natNi as the starting material, highly pure ^61Cu could be produced with radionuclidic purity exceeding 99.99% at 12 h after synthesis (details on the production will be published elsewhere). The preparation of [^61Cu]Cu-NODAGA-PSMA-I&T was performed in widely used buffers at room temperature within 5 min. […] High labeling yields and suitable molar activities for clinical use eliminate the need for any purification step after labeling. […]

Compound: O=C([O-])CN1CCN(CC(=O)[O-])CCN(C(CCC(=O)N[C@H](Cc2ccc(O)c(I)c2)C(=O)N[C@H](Cc2ccccc2)C(=O)N[C@H](CCCCNC(=O)CCCCCCC(=O)NCCCC[C@H](NC(=O)N[C@@H](CCC(=O)O)C(=O)O)C(=O)O)C(=O)O)C(=O)O)CC1.[61Cu+2] (stereo partly drawn) [[^61Cu]Cu-NODAGA-PSMA-I&T, NODAGA-(l-y)fk(sub-KuE)]
- SUVmax, kidney (right) [1]: 57.3
- SUVmax, liver [1]: 6.5
- SUVmax, salivary gland (right parotid gland) [1]: 20.5
- SUVmax, tumor lesion left liver lobe [1]: 23.6
- SUVmax, tumor lesion right lower pubic bone [1]: 154.2
- SUVmax, tumor lesion right scapula [1]: 86.4
- SUVmax, tumor lesion sacral bone [1]: 16.5
- SUVmean, kidney (right) [1]: 37.9
- SUVmean, liver [1]: 3.4
- SUVmean, salivary gland (right parotid gland) [1]: 12.6
- SUVmean, tumor lesion left liver lobe [1]: 11.7
- SUVmean, tumor lesion right lower pubic bone [1]: 83.7
- SUVmean, tumor lesion right scapula [1]: 55.3
- SUVmean, tumor lesion sacral bone [1]: 9.9
- Effective dose [2]: 0.0142 mSv/MBq and 1.42E−02 mSv/MBq
- Total absorbed dose, men: Adrenals [2]: 8.39E−02 mGy/MBq
- Total absorbed dose, men: Brain [2]: 6.18E−05 mGy/MBq
- Total absorbed dose, men: Gallbladder wall [2]: 2.30E−02 mGy/MBq
- Total absorbed dose, men: Heart wall [2]: 6.94E−03 mGy/MBq
- Total absorbed dose, men: Kidneys [2]: 1.74E+00 mGy/MBq
- Total absorbed dose, men: LLI wall [2]: 4.64E−03 mGy/MBq
- Total absorbed dose, men: Liver [2]: 2.51E−02 mGy/MBq
- Total absorbed dose, men: Lungs [2]: 6.11E−03 mGy/MBq
- Total absorbed dose, men: Muscle [2]: 6.00E−03 mGy/MBq
- Total absorbed dose, men: Osteogenic cells [2]: 5.31E−03 mGy/MBq
- Total absorbed dose, men: Pancreas [2]: 4.83E−02 mGy/MBq
- Total absorbed dose, men: Red marrow [2]: 1.11E−02 mGy/MBq
- Total absorbed dose, men: Skin [2]: 2.90E−03 mGy/MBq
- Total absorbed dose, men: Small intestine [2]: 3.79E−02 mGy/MBq
- Total absorbed dose, men: Spleen [2]: 7.37E−02 mGy/MBq
- Total absorbed dose, men: Stomach wall [2]: 1.71E−02 mGy/MBq
- Total absorbed dose, men: Testes [2]: 5.39E−04 mGy/MBq
- Total absorbed dose, men: Thymus [2]: 1.67E−03 mGy/MBq
- Total absorbed dose, men: Thyroid [2]: 4.99E−04 mGy/MBq
- Total absorbed dose, men: Total body [2]: 1.38E−02 mGy/MBq
- Total absorbed dose, men: ULI wall [2]: 1.43E−02 mGy/MBq
- Total absorbed dose, men: Urinary bladder wall [2]: 2.06E−03 mGy/MBq
- logDpH7.4 [3]: −2.95 ± 0.08
- Cellular uptake (surface-bound + internalized) (LNCaP cells; specific uptake): 22.4% ± 3.3%
- Internalized fraction (LNCaP cells; % of applied activity): 11.7 ± 1.6%
- Surface-bound fraction (LNCaP cells; % of applied activity): 10.8 ± 1.8%
- Time stable at room temperature [4]: up to 9 h

Reference: article PMC11372264, “^61Cu-PSMA–Targeted PET for Prostate Cancer: From Radiotracer Development to First-in-Human Imaging” (Journal of Nuclear Medicine, 2024)
